{"source": "patent US10800791B2", "about": "“Triazole ACC inhibitors and uses thereof” (Gilead Apollo, LLC, priority 2015, dated 2020)", "key": {"[1]": {"system": "C. parapsilosis", "assay": "Antifungal Activity Assay (broth microtiter MIC), C. parapsilosis", "assay_type": "cell-based, Candida parapsilosis", "conditions": "Lodderomyces parapsilosis, ATCC22019, 48 h", "outline": "(§1)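 CLSI M27-A3 microdilution; RPMI 1640+MOPS; 2.5×10^3 CFU/mL final inoculum; cultures from Sabouraud dextrose agar, 35° C overnight; compound working solution 128 μg/mL from 1 mg/mL DMSO stock; visual MIC at 48 h vs growth control.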"}, "[2]": {"system": "Rhizoctonia solani (Rs)", "assay": "Growth inhibition assay of fungal pathogens, Rs", "assay_type": "cell-based", "conditions": "48 h"}, "[3]": {"target": "human (hACC2) (Homo sapiens, UniProt O00763)", "sequence (O00763 whole entry)": "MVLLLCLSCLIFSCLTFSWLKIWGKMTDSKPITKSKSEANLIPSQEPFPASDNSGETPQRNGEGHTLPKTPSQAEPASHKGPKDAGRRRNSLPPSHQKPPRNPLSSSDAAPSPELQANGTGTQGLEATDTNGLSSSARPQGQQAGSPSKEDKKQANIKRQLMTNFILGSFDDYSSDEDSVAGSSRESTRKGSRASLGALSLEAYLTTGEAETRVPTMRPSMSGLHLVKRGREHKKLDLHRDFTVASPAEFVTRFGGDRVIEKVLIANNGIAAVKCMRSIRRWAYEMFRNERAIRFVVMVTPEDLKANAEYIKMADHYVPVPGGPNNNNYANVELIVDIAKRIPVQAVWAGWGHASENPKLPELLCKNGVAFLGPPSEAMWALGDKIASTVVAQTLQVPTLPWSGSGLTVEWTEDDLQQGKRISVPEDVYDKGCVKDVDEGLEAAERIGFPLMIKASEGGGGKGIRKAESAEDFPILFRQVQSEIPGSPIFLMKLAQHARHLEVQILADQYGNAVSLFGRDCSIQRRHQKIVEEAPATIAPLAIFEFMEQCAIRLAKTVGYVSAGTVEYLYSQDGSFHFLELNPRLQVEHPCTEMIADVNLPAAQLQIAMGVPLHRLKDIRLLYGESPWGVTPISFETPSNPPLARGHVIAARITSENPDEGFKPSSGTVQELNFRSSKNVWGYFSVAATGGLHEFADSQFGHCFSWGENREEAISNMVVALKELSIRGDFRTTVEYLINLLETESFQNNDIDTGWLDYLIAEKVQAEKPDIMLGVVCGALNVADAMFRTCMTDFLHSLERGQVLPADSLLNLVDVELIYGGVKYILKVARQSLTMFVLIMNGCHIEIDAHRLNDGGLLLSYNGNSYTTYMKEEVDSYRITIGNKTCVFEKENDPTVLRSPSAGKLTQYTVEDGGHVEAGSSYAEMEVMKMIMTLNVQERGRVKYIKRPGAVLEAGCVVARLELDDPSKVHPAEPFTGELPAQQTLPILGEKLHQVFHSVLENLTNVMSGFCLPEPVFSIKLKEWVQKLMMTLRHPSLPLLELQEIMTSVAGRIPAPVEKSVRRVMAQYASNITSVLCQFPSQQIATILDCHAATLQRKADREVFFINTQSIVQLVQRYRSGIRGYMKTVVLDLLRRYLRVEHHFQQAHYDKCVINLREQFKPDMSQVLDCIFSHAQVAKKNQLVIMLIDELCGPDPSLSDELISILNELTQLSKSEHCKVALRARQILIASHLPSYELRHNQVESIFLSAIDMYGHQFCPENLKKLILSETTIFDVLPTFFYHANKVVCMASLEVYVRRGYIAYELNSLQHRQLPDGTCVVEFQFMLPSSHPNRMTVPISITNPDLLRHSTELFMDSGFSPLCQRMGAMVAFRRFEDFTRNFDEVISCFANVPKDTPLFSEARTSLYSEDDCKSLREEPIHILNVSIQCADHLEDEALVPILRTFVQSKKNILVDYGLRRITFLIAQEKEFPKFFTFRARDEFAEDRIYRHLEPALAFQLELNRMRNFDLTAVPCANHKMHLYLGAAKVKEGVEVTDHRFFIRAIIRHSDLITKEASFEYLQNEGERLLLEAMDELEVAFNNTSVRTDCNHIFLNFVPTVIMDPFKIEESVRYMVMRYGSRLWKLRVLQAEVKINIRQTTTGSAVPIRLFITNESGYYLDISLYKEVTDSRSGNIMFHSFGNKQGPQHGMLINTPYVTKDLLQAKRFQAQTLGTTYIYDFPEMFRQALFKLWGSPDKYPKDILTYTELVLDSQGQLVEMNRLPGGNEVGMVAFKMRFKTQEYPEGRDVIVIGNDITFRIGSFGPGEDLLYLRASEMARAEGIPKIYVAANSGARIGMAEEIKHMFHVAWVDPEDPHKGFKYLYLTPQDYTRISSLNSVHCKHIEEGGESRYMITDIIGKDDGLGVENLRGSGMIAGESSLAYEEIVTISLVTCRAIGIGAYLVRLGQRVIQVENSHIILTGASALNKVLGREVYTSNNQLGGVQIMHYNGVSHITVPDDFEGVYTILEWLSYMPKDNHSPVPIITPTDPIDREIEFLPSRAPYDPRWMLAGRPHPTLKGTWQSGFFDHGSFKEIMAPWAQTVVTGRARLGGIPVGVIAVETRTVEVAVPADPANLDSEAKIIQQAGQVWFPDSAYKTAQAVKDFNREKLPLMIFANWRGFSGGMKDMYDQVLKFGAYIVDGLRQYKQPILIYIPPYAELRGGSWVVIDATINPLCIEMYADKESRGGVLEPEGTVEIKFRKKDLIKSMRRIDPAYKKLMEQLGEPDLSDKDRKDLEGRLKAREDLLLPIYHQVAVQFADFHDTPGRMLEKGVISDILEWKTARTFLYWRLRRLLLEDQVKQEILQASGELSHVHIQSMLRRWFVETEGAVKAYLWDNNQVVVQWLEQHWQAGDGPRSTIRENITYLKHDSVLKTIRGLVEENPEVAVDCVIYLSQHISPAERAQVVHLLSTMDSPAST", "assay": "In vitro ACC inhibition assay (ADP-Glo), hACC2", "assay_type": "biochemical", "conditions": "5 nM ACC2, 20 μM ATP, 20 μM acetyl-CoA", "procedure": "The detailed procedure is as follows. […] 10 μL ADP glo reagent was added. […] 20 μL kinase detection reagent was added."}, "[4]": {"system": "Fusarium virguliforme (Fv)", "assay": "Growth inhibition assay of fungal pathogens, Fv", "assay_type": "cell-based", "conditions": "48 h", "outline": "(§2)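 Percent inhibition derived at 48 hours from OD600 and visual scores versus 2% DMSO control, with media+DMSO blank as background. Spore inocula in 17% V8 medium were sized from 48 h growth curves; compounds tested at final 50/10/2 or 2/0.4/0.08 ppm.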"}, "[5]": {"system": "Collectotrichum graminicola (Cg)", "assay": "Growth inhibition assay of fungal pathogens, Cg", "assay_type": "cell-based", "conditions": "48 h", "outline": "as §2"}, "[6]": {"system": "C. krusei", "assay": "Antifungal Activity Assay (broth microtiter MIC), C. krusei", "assay_type": "cell-based, Candida krusei", "conditions": "Pichia kudriavzevii, ATCC6258, 48 h", "outline": "as §1"}, "[7]": {"system": "Diplodia maydis (Dm)", "assay": "Growth inhibition assay of fungal pathogens, Dm", "assay_type": "cell-based", "conditions": "Stenocarpella maydis, 48 h", "outline": "as §2"}, "[8]": {"system": "Fusarium moniliforme (Fm)", "assay": "Growth inhibition assay of fungal pathogens, Fm", "assay_type": "cell-based", "conditions": "for IC90: Fusarium verticillioides, 48 h, read-out: Concentration at 90% Inhibition Fm", "outline": "as §2"}, "[9]": {"system": "Septoria tritici (St)", "assay": "Growth inhibition assay of fungal pathogens, St", "assay_type": "cell-based", "conditions": "Zymoseptoria tritici, 48 h", "outline": "as §2"}, "[10]": {"system": "Phytophthora capsici (Pc)", "assay": "Growth inhibition assay of fungal pathogens, Pc", "assay_type": "cell-based", "conditions": "48 h", "outline": "as §2"}, "[11]": {"system": "C. albicans", "assay": "Antifungal Activity Assay (broth microtiter MIC), C. albicans", "assay_type": "cell-based, Candida albicans", "conditions": "Candida albicans, ATCC90028, 48 h", "outline": "as §1"}, "[12]": {"conditions": "Fusarium moniliforme, growth inhibition at 48 hours vs 2% DMSO control"}}, "note": "pIC50: −log10 of the molar value. Where two headings read alike, the source gives them in different places."}
{"smiles": "COc1ccc(F)cc1[C@H](Cn1c(=O)n(C(C)(C)C(=O)NCC#N)c(=O)c2c(C)c(-n3nccn3)sc21)OC(C)C", "note": "[Compound I-52, (R)—N-(cyanomethyl)-2-(1-(2-(5-fluoro-2-methoxyphenyl)-2-isopropoxyethyl)-5-methyl-2,4-dioxo-6-(2H-1,2,3-triazol-2-yl)-1,4-dihydro-thieno[2,3-d]pyrimidin-3(2H)-yl)-2-methylpropanamide]", "values": [{"measurement": "MIC", "setting": "[1]; read-out: MIC, C. parapsilosis ATCC 22019, Table 3a, 3 replicates, MIC recorded at 48 h", "result": "2.1 to 4", "unit": "µg/mL"}, {"measurement": "MIC", "setting": "[1]; read-out: MIC, C. parapsilosis ATCC 22019, Table 3b (additional results), 3 replicates, MIC recorded at 48 h", "result": "2.01 to 4", "unit": "µg/mL"}, {"measurement": "IC90", "setting": "[2]; read-out: Concentration at 90% Inhibition Rs, Rhizoctonia solani, mycelial plugs, growth inhibition at 48 hours vs 2% DMSO control", "result": "> 50", "unit": "µg/mL"}, {"measurement": "IC90", "setting": "[2]; read-out: Concentration at 90% Inhibition Rs, Rhizoctonia solani, mycelial plugs, growth inhibition vs 2% DMSO control at 48 hours", "result": "> 50", "unit": "µg/mL"}, {"measurement": "pIC50", "setting": "[3]; Table 2a", "result": "7.40 to 8.00"}, {"measurement": "pIC50", "setting": "[3]; Table 2b, additional results", "result": "7.40 to 8.00"}, {"measurement": "IC90", "setting": "[4]; read-out: Concentration at 90% Inhibition Fv, Fusarium virguliforme, growth inhibition at 48 hours vs 2% DMSO control", "result": 2, "unit": "µg/mL"}, {"measurement": "IC90", "setting": "[4]; read-out: Concentration at 90% Inhibition Fv, Fusarium virguliforme, growth inhibition vs 2% DMSO control at 48 hours", "result": 2, "unit": "µg/mL"}, {"measurement": "IC90", "setting": "[5]; read-out: Concentration at 90% Inhibition Cg, Collectotrichum graminicola, growth inhibition at 48 hours vs 2% DMSO control", "result": 10, "unit": "µg/mL"}, {"measurement": "IC90", "setting": "[5]; read-out: Concentration at 90% Inhibition Cg, Collectotrichum graminicola, growth inhibition vs 2% DMSO control at 48 hours", "result": "> 50", "unit": "µg/mL"}, {"measurement": "MIC", "setting": "[6]; read-out: MIC, C. krusei ATCC 6258, Table 3a, 3 replicates, MIC recorded at 48 h", "result": "2.1 to 4", "unit": "µg/mL"}, {"measurement": "MIC", "setting": "[6]; read-out: MIC, C. krusei ATCC 6258, Table 3b (additional results), 3 replicates, MIC recorded at 48 h", "result": "0.25 to 1", "unit": "µg/mL"}, {"measurement": "IC90", "setting": "[7]; read-out: Concentration at 90% Inhibition Dm, Diplodia maydis, growth inhibition at 48 hours vs 2% DMSO control", "result": 10, "unit": "µg/mL"}, {"measurement": "IC90", "setting": "[7]; read-out: Concentration at 90% Inhibition Dm, Diplodia maydis, growth inhibition vs 2% DMSO control at 48 hours", "result": "> 50", "unit": "µg/mL"}, {"measurement": "Concentration at 90% Inhibition Fm", "setting": "[8]; [12]", "result": "B (compound concentration of 2.0 ppm at 90% inhibition of fungal pathogens)"}, {"measurement": "IC90", "setting": "[8]", "result": 2, "unit": "µg/mL"}, {"measurement": "IC90", "setting": "[9]; read-out: Concentration at 90% Inhibition St, Septoria tritici, growth inhibition at 48 hours vs 2% DMSO control", "result": "> 50", "unit": "µg/mL"}, {"measurement": "IC90", "setting": "[9]; read-out: Concentration at 90% Inhibition St, Septoria tritici, growth inhibition vs 2% DMSO control at 48 hours", "result": "> 50", "unit": "µg/mL"}, {"measurement": "IC90", "setting": "[10]; read-out: Concentration at 90% Inhibition Pc, Phytophthora capsici, growth inhibition at 48 hours vs 2% DMSO control", "result": "> 50", "unit": "µg/mL"}, {"measurement": "IC90", "setting": "[10]; read-out: Concentration at 90% Inhibition Pc, Phytophthora capsici, growth inhibition vs 2% DMSO control at 48 hours", "result": "> 50", "unit": "µg/mL"}, {"measurement": "MIC", "setting": "[11]; read-out: MIC, C. albicans ATCC 90028, Table 3a, 3 replicates, MIC recorded at 48 h", "result": "2.1 to 4", "unit": "µg/mL"}, {"measurement": "MIC", "setting": "[11]; read-out: MIC, C. albicans ATCC 90028, Table 3b (additional results), 3 replicates, MIC recorded at 48 h", "result": "1.01 to 2", "unit": "µg/mL"}]}
{"smiles": "Cc1c(-n2nccn2)sc2c1c(=O)n(C(C)(C)C(=O)NC(C)C)c(=O)n2C[C@H](OC(C)C)c1cc(F)ccc1OCCO", "note": "[Compound I-53, (R)-2-(1-(2-(5-fluoro-2-(2-hydroxyethoxy)phenyl)-2-isopropoxyethyl)-5-methyl-2,4-dioxo-6-(2H-1,2,3-triazol-2-yl)-1,4-dihydrothieno[2,3-d]pyrimidin-3(2H)-yl)-N-isopropyl-2-methylpropanamide]", "values": [{"measurement": "MIC", "setting": "[1]; Table 3a, ATCC 22019, 3 replicates, MIC recorded at 48 h, read-out: MIC, C. parapsilosis ATCC 22019", "result": "0.25 to 1", "unit": "µg/mL"}, {"measurement": "MIC", "setting": "[1]; Table 3b (additional results), ATCC 22019, 3 replicates, MIC recorded at 48 h, read-out: MIC, C. parapsilosis ATCC 22019", "result": "1.01 to 2", "unit": "µg/mL"}, {"measurement": "IC90", "setting": "[2]; mycelial plugs, growth inhibition at 48 hours vs 2% DMSO control, read-out: Concentration at 90% Inhibition Rs", "result": 0.08, "unit": "µg/mL"}, {"measurement": "IC90", "setting": "[2]; mycelial plugs, growth inhibition vs 2% DMSO control at 48 hours, read-out: Concentration at 90% Inhibition Rs", "result": 0.08, "unit": "µg/mL"}, {"measurement": "pIC50", "setting": "[3]; Table 2a", "result": "7.40 to 8.00"}, {"measurement": "pIC50", "setting": "[3]; Table 2b, additional results", "result": "7.40 to 8.00"}, {"measurement": "IC90", "setting": "[4]; growth inhibition at 48 hours vs 2% DMSO control, read-out: Concentration at 90% Inhibition Fv", "result": 0.4, "unit": "µg/mL"}, {"measurement": "IC90", "setting": "[4]; growth inhibition vs 2% DMSO control at 48 hours, read-out: Concentration at 90% Inhibition Fv", "result": 0.4, "unit": "µg/mL"}, {"measurement": "IC90", "setting": "[5]; Collectotrichum graminicola, growth inhibition at 48 hours vs 2% DMSO control, read-out: Concentration at 90% Inhibition Cg", "result": 0.4, "unit": "µg/mL"}, {"measurement": "IC90", "setting": "[5]; Collectotrichum graminicola, growth inhibition vs 2% DMSO control at 48 hours, read-out: Concentration at 90% Inhibition Cg", "result": 0.4, "unit": "µg/mL"}, {"measurement": "MIC", "setting": "[6]; Table 3a, ATCC 6258, 3 replicates, MIC recorded at 48 h, read-out: MIC, C. krusei ATCC 6258", "result": "0.25 to 1", "unit": "µg/mL"}, {"measurement": "MIC", "setting": "[6]; Table 3b (additional results), ATCC 6258, 3 replicates, MIC recorded at 48 h, read-out: MIC, C. krusei ATCC 6258", "result": "0.06 to 0.249", "unit": "µg/mL"}, {"measurement": "IC90", "setting": "[7]; Diplodia maydis, growth inhibition at 48 hours vs 2% DMSO control, read-out: Concentration at 90% Inhibition Dm", "result": 0.4, "unit": "µg/mL"}, {"measurement": "IC90", "setting": "[7]; Diplodia maydis, growth inhibition vs 2% DMSO control at 48 hours, read-out: Concentration at 90% Inhibition Dm", "result": 0.4, "unit": "µg/mL"}, {"measurement": "IC90", "setting": "[8]; [12]", "result": 0.08, "unit": "µg/mL"}, {"measurement": "IC90", "setting": "[8]; Fusarium moniliforme, growth inhibition vs 2% DMSO control at 48 hours", "result": 0.08, "unit": "µg/mL"}, {"measurement": "IC90", "setting": "[9]; Septoria tritici, growth inhibition at 48 hours vs 2% DMSO control, read-out: Concentration at 90% Inhibition St", "result": "> 50", "unit": "µg/mL"}, {"measurement": "IC90", "setting": "[9]; Septoria tritici, growth inhibition vs 2% DMSO control at 48 hours, read-out: Concentration at 90% Inhibition St", "result": "> 50", "unit": "µg/mL"}, {"measurement": "IC90", "setting": "[10]; growth inhibition at 48 hours vs 2% DMSO control, read-out: Concentration at 90% Inhibition Pc", "result": "> 50", "unit": "µg/mL"}, {"measurement": "IC90", "setting": "[10]; growth inhibition vs 2% DMSO control at 48 hours, read-out: Concentration at 90% Inhibition Pc", "result": "> 50", "unit": "µg/mL"}, {"measurement": "MIC", "setting": "[11]; Table 3a, ATCC 90028, 3 replicates, MIC recorded at 48 h, read-out: MIC, C. albicans ATCC 90028", "result": "0.25 to 1", "unit": "µg/mL"}, {"measurement": "MIC", "setting": "[11]; Table 3b (additional results), ATCC 90028, 3 replicates, MIC recorded at 48 h, read-out: MIC, C. albicans ATCC 90028", "result": "0.25 to 1", "unit": "µg/mL"}]}
